According to PubChem BioAssay AID248 (DTP/NCI, 2004):
Where “and” joins values, the source holds several entries; their conditions need not be identical. Equal entries are not always repeated. Inconclusive results and toxic doses are left out. Rule as the data show it: active = T/C of 150% or more; inactive = T/C below 125%.

Test system: L1210 leukemia ip in BDF1 mice, survival T/C
Test: NCI In Vivo Anticancer Drug Screen. Data for tumor model L1210 Leukemia (intraperitoneal) in B6D2F1 (BDF1) mice
Details: endpoint: mean survival time, higher = longer survival
How it was run: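 Tumor was transplanted into mice, which were then dosed with test compound or vehicle alone. Survival was recorded for each group, and the treated figure was expressed relative to the control figure.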

[1] = dose: 100.0 mg/kg/injection, schedule: Q01DX009 (ip), vehicle: saline with Tween-80
[2] = dose: 100.0 mg/kg/injection, schedule: Q04DX003 (ip), vehicle: saline
[3] = dose: 200.0 mg/kg/injection, schedule: Q01DX009 (ip), vehicle: saline with Tween-80
[4] = dose: 200.0 mg/kg/injection, schedule: Q04DX003 (ip), vehicle: saline
[5] = dose: 400.0 mg/kg/injection, schedule: Q01DX009 (ip), vehicle: saline with Tween-80
[6] = dose: 400.0 mg/kg/injection, schedule: Q04DX003 (ip), vehicle: saline
[7] = dose: 100.0 mg/kg/injection, schedule: Q04DX003 (ip), vehicle: Klucel (hydroxypropylcellulose) (HPC)
[8] = dose: 200.0 mg/kg/injection, schedule: Q04DX003 (ip), vehicle: Klucel (hydroxypropylcellulose) (HPC)
[9] = dose: 400.0 mg/kg/injection, schedule: Q04DX003 (ip), vehicle: Klucel (hydroxypropylcellulose) (HPC)
[10] = dose: 100.0 mg/kg/injection, schedule: Q04DX003 (ip), vehicle: saline with Tween-80
[11] = dose: 200.0 mg/kg/injection, schedule: Q04DX003 (ip), vehicle: saline with Tween-80
[12] = dose: 100.0 mg/kg/injection, schedule: Q01DX001 (ip), vehicle: saline
[13] = dose: 200.0 mg/kg/injection, schedule: Q01DX001 (ip), vehicle: saline
[14] = dose: 400.0 mg/kg/injection, schedule: Q01DX001 (ip), vehicle: saline
[15] = dose: 400.0 mg/kg/injection, schedule: Q04DX003 (ip), vehicle: saline with Tween-80
[16] = dose: 100.0 mg/kg/injection, schedule: Q01DX009 (ip), vehicle: Klucel (hydroxypropylcellulose) (HPC)
[17] = dose: 200.0 mg/kg/injection, schedule: Q01DX009 (ip), vehicle: Klucel (hydroxypropylcellulose) (HPC)
[18] = dose: 400.0 mg/kg/injection, schedule: Q01DX009 (ip), vehicle: Klucel (hydroxypropylcellulose) (HPC)
[19] = dose: 50.0 mg/kg/injection, schedule: Q04DX003 (ip), vehicle: saline

Measured: T/C

CCOC(=O)c1ccc(NS(=O)(=O)c2c(C)cc(C)cc2C)cc1
inactive: [1] 104 % of control and 90 % of control | dose: 100.0 mg/kg/injection, schedule: Q04DX002 (ip), vehicle: saline with Tween-80 97 % of control and 103 % of control | [2] 95 % of control | [3] 95 % of control and 103 % of control | dose: 200.0 mg/kg/injection, schedule: Q04DX002 (ip), vehicle: saline with Tween-80 89 % of control and 91 % of control | [4] 96 % of control | [5] 95 % of control and 105 % of control | dose: 400.0 mg/kg/injection, schedule: Q04DX002 (ip), vehicle: saline with Tween-80 97 % of control and 87 % of control | [6] 91 % of control

O=C(c1ccccc1)c1c[nH]c2c(O)ccc(O)c12
inactive: dose: 12.5 mg/kg/injection, schedule: Q04DX002 (ip), vehicle: Klucel (hydroxypropylcellulose) (HPC) 91 % of control | dose: 25.0 mg/kg/injection, schedule: Q04DX002 (ip), vehicle: Klucel (hydroxypropylcellulose) (HPC) 95 % of control | dose: 50.0 mg/kg/injection, schedule: Q04DX002 (ip), vehicle: Klucel (hydroxypropylcellulose) (HPC) 95 % of control

CS(=O)(=O)OC1C(OCc2ccccc2)OC(COCc2ccccc2)C(OC2OC(COCc3ccccc3)C(OCc3ccccc3)C(OCc3ccccc3)C2OCc2ccccc2)C1OCc1ccccc1 (stereo not drawn)
inactive: dose: 50.0 mg/kg/injection, schedule: Q04DX003 (ip), vehicle: Klucel (hydroxypropylcellulose) (HPC) 93 % of control | [7] 93 % of control | [8] 97 % of control | [9] 93 % of control

O=C1SC2(CCCCC2)SC1=O
inactive: dose: 50.0 mg/kg/injection, schedule: Q01DX009 (ip), vehicle: saline with Tween-80 110 % of control | [1] 113 % of control | [10] 110 % of control | [11] 100 % of control

O=C1C(=O)c2ccccc2C(O)=C1Nc1ccc(Cl)cc1
inactive: [12] 94 % of control | [13] 93 % of control | [14] 93 % of control

COC1C(COC(C)=O)OC(n2cnc3c(=O)[nH]cnc32)C1OC(C)=O (stereo not drawn)
inactive: [12] 112 % of control | [13] 108 % of control | [14] 103 % of control

CC(=O)OC1(C[N+](=O)[O-])CCCCC1
inactive: dose: 50.0 mg/kg/injection, schedule: Q01DX001 (ip), vehicle: saline with Tween-80 93 % of control | dose: 100.0 mg/kg/injection, schedule: Q01DX001 (ip), vehicle: saline with Tween-80 101 % of control | dose: 200.0 mg/kg/injection, schedule: Q01DX001 (ip), vehicle: saline with Tween-80 101 % of control

CC(=O)OC1C=CC(=O)OC1C1OC1C (stereo not drawn)
inactive: dose: 4.0 mg/kg/injection, schedule: Q01DX Z (ip), vehicle: saline 100 % of control | dose: 6.0 mg/kg/injection, schedule: Q01DX Z (ip), vehicle: saline 111 % of control | dose: 9.0 mg/kg/injection, schedule: Q01DX Z (ip), vehicle: saline 110 % of control | dose: 13.0 mg/kg/injection, schedule: Q01DX Z (ip), vehicle: saline 100 % of control and 108 % of control | dose: 19.0 mg/kg/injection, schedule: Q01DX Z (ip), vehicle: saline 103 % of control | dose: 29.0 mg/kg/injection, schedule: Q01DX Z (ip), vehicle: saline 103 % of control

Cc1cc(N(CCCl)CCCl)ccc1C=Nc1ccccc1-n1ccnc1C
inactive: dose: 75.0 mg/kg/injection, schedule: Q04DX002 (ip), vehicle: Klucel (hydroxypropylcellulose) (HPC) 98 % of control | dose: 150.0 mg/kg/injection, schedule: Q04DX002 (ip), vehicle: Klucel (hydroxypropylcellulose) (HPC) 98 % of control | dose: 300.0 mg/kg/injection, schedule: Q04DX002 (ip), vehicle: Klucel (hydroxypropylcellulose) (HPC) 98 % of control

COc1cc2ccc(/C(C)=N/OC(C)=O)cc2cc1OC
inactive: [10] 100 % of control | [11] 100 % of control | [15] 106 % of control

O=C(COc1ccc(Cl)cc1)C1CSc2ccc3ccccc3c21 (stereo not drawn)
inactive: dose: 100.0 mg/kg/injection, schedule: Q04DX003 (ip), vehicle: saline sonified 88 % of control | dose: 200.0 mg/kg/injection, schedule: Q04DX003 (ip), vehicle: saline sonified 89 % of control | dose: 400.0 mg/kg/injection, schedule: Q04DX003 (ip), vehicle: saline sonified 88 % of control

Cc1cc(NC(=O)Oc2ccccc2)ccc1S(=O)(=O)F
inactive: dose: 75.0 mg/kg/injection, schedule: Q01DX001 (ip), vehicle: steriod suspending solution 102 % of control | dose: 150.0 mg/kg/injection, schedule: Q01DX001 (ip), vehicle: steriod suspending solution 96 % of control | dose: 300.0 mg/kg/injection, schedule: Q01DX001 (ip), vehicle: steriod suspending solution 98 % of control

O=c1[nH]cnc2c(Cl)c(C(Cl)(Cl)Cl)nn12 (tested in a mixture with another compound)
inactive: [1] 97 % of control | [10] 104 % of control | [3] 92 % of control | [11] 98 % of control | [5] 97 % of control | [15] 97 % of control

CC1OCC2OC(C)OC(C(COC(=O)c3ccc([N+](=O)[O-])cc3)OS(C)(=O)=O)C2O1 (stereo not drawn)
inactive: [16] 113 % of control | [7] 102 % of control | [17] 108 % of control | [8] 104 % of control | [18] 92 % of control | [9] 96 % of control

COc1cccc(OC)c1OC(=O)NS(=O)(=O)c1ccc(Cl)cc1
inactive: [1] 116 % of control | [10] 104 % of control | [3] 98 % of control | [11] 97 % of control | [5] 106 % of control | [15] 103 % of control

CC(/C=N/N(C)C)=N\N(C)C
inactive: [2] 92 % of control | [4] 102 % of control

CC(C)C(C(=O)O)N(C)C(=O)c1cnc2ccccc2n1 (stereo not drawn)
inactive: [12] 105 % of control | [13] 109 % of control | [14] 103 % of control

CN(C)/C(=C\C(=O)c1ccccc1)c1ccccc1
inactive: [10] 90 % of control | [15] 86 % of control

CCN(CC)CCCC(C)NC(=O)c1cccc2c([N+](=O)[O-])cccc12 (stereo not drawn)
inactive: dose: 25.0 mg/kg/injection, schedule: Q01DX009 (ip), vehicle: water 100 % of control | dose: 50.0 mg/kg/injection, schedule: Q01DX009 (ip), vehicle: water 108 % of control | dose: 100.0 mg/kg/injection, schedule: Q01DX009 (ip), vehicle: water 103 % of control

C[N+](C)([O-])CCC=C1c2ccccc2CCc2ccccc21
inactive: dose: 12.5 mg/kg/injection, schedule: Q04DX003 (ip), vehicle: saline 103 % of control | dose: 25.0 mg/kg/injection, schedule: Q04DX003 (ip), vehicle: saline 106 % of control | [19] 103 % of control | [2] 103 % of control | [4] 97 % of control

O=C(OCc1ccccc1)c1cc(OCc2ccccc2)ccc1OCc1ccccc1
inactive: [16] 89 % of control | [7] 93 % of control | [17] 101 % of control | [8] 95 % of control | [18] 107 % of control | [9] 98 % of control

COc1cc(OC)c(OC)cc1/C=C\c1ccc2ccccc2[n+]1C
inactive: dose: 25.0 mg/kg/injection, schedule: Q04DX003 (ip), vehicle: saline with Tween-80 101 % of control | dose: 50.0 mg/kg/injection, schedule: Q04DX003 (ip), vehicle: saline with Tween-80 90 % of control

NC(=O)CCP(=O)(CCC(N)=O)CCC(N)=O
inactive: dose: 50.0 mg/kg/injection, schedule: Q01DX009 (ip), vehicle: saline 94 % of control | [19] 101 % of control | dose: 100.0 mg/kg/injection, schedule: Q01DX009 (ip), vehicle: saline 94 % of control | [2] 103 % of control | dose: 200.0 mg/kg/injection, schedule: Q01DX009 (ip), vehicle: saline 90 % of control | [4] 95 % of control | [6] 98 % of control

Cc1ccc(Br)c2c1CCC2=O
inactive: dose: 100.0 mg/kg/injection, schedule: Q01DX001 (ip), vehicle: Klucel (hydroxypropylcellulose) (HPC) 93 % of control | dose: 200.0 mg/kg/injection, schedule: Q01DX001 (ip), vehicle: Klucel (hydroxypropylcellulose) (HPC) 100 % of control | dose: 400.0 mg/kg/injection, schedule: Q01DX001 (ip), vehicle: Klucel (hydroxypropylcellulose) (HPC) 93 % of control
